Source: PubChem BioAssay AID540271 (Broad Institute, 2011)
Calls of active or inactive are those of the source. How the calls were made is not given here.

What follows are compounds tested on S. cerevisiae expressing PfHSP40, growth rescue, plate reader (assay: S cerevisiae expressing PfHSP40, growth rescue, cherry pick dose confirmatory, plate reader (AID 540271);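 further: yeast growth read after three days of incubation at 30 °C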).
With `CC(C)(C)C(=O)C(Oc1ccc(Cl)cc1)n1cncn1` (centres undefined) the AC50 was 4.7 µM. `CN(C(=O)COC(=O)c1ccc([N+](=O)[O-])cc1Cl)C1CCCCC1` gave an AC50 of 9.99 µM. Work on `Oc1ccc(N=Nc2ccc3c(c2)OCCO3)c2cccnc12` yielded an AC50 of 1.85 µM. Compound `Cc1nc(SCc2ccc(OCCC(C)C)cc2)n[nH]1` has an AC50 of 3.08 µM. For `Cc1ccc(Cl)cc1NC1=C/C(=N\S(=O)(=O)c2cccs2)c2ccccc2C1=O`, the AC50 was 6.42 µM. For `O=C(O/N=C(\c1ccccc1)c1ccncc1)c1ccccc1Cl`, the AC50 was > 12 µM (inactive). `O=Cc1ccc(O)c2ncccc12` showed an AC50 of 0.366 µM. `Oc1ccc(Br)cc1/C=N/Nc1ccccn1` was tested, and the AC50 was 5.39 µM. For `Cc1nc2ccc(NC(=O)COc3cccc(F)c3)cc2s1`, the AC50 was 10.2 µM. `Clc1ccc(OCc2nc(-c3ccncc3)no2)c(Br)c1` showed an AC50 of 6.2 µM. With `COc1cccc(/C=N/Nc2ncc(C(F)(F)F)cc2Cl)c1O` the AC50 was 1.49 µM. With `O=C(Nc1cc(Oc2ccc(Cl)cc2)cc([N+](=O)[O-])c1)c1ccco1` the AC50 was > 12 µM (inactive). `CC(=O)Nc1cccc(NC(=O)CSc2ccc(-c3ccccn3)nn2)c1` showed an AC50 of 3.64 µM. `CC(=O)Oc1ccc(OC(C)=O)c(SCCCCCCl)c1` showed an AC50 of 7.6 µM. For `CCCCCCN1N=C(C)C(C(=O)c2ccc(Cl)cc2)C1=O` (centres undefined), the AC50 was 3.23 µM. `O=[N+]([O-])c1cc(C(F)(F)F)ccc1NCCc1c[nH]c2ccc(O)cc12` was tested, and the AC50 was 4.85 µM. For `COc1ccc(N(C(=O)c2ccncc2)S(=O)(=O)c2ccccc2)cc1`, the AC50 was 2.4 µM. With `Cc1csc2nc(O)c(C(=O)NCCCc3ccccc3)c(=O)n12` the AC50 was 4.55 µM. Compound `O=CC1=C(c2ccccc2)Oc2ccccc2O1` has an AC50 of 2.78 µM. Work on `C=CCOC(Cn1ccnc1)c1ccc(Cl)cc1Cl` (centres undefined) yielded an AC50 of 1.89 µM. Work on `Cc1ccsc1/C=C/c1ccc2cccc(O)c2n1` yielded an AC50 of 3.48 µM. `Nc1cc2c3ccccc3ccc2c2ccccc12` gave an AC50 of 2.13 µM. `Cc1cc(NS(=O)(=O)c2ccc(C3CCCCC3)cc2)no1` showed an AC50 of 5.38 µM. `COc1cc(/C=C2\SC(=S)N(NS(=O)(=O)c3ccc(C)cc3)C2=O)ccc1O` showed an AC50 of 7.05 µM. `O=S1OC(c2ccccc2)c2cc(Cl)ccc21` (centres undefined) showed an AC50 of 10.8 µM. Work on `O=C(NCC1CC1(Cl)Cl)Nc1ccc(Cl)c(Cl)c1` (centres undefined) yielded an AC50 of 5.73 µM. In the case of `O=c1c(CO)cc(CO)cc(CO)c1O`, the AC50 was 6.03 µM. Work on `COc1cc2cnc(-c3ccccc3)c(C(=O)c3ccc(F)cc3)c2cc1OC` yielded an AC50 of 4.57 µM. With `Cc1ccc(NC(=S)Nc2cccc3cnccc23)cc1C` the AC50 was > 12 µM (inactive). Work on `C[C@@]12C(=O)Nc3ccc(F)cc3C(=O)N1[C@H]1c3ccccc3OC[C@@H]1[C@@H]2c1ccccc1` yielded an AC50 of 8.46 µM. `CC(/C=N/n1c(COc2ccccc2)n[nH]c1=S)=C\c1ccccc1` was tested, and the AC50 was 4.55 µM. `COc1cnc(-c2ccccn2)nc1Sc1ccccc1` showed an AC50 of 6.99 µM. `CC(=O)Nc1cccc(-c2cc(-c3c(Cl)cccc3Cl)no2)c1` was tested, and the AC50 was 3.12 µM. Compound `Nc1nc(-c2ccccc2)c(-c2ccc([N+](=O)[O-])cc2)s1` has an AC50 of 3.99 µM. `CCc1cc(-c2[nH]ncc2-c2ccc([N+](=O)[O-])cc2)c(O)cc1OC` gave an AC50 of 6.19 µM. `Cc1csc(NC(=O)C(C)Oc2ccc(Cl)cc2C)n1` (centres undefined) was tested, and the AC50 was 8.4 µM. For `CCOC(=O)c1c2c(n(-c3ccc(OC)cc3)c1C)C(=O)C(=O)c1ccccc1-2`, the AC50 was 3.97 µM. With `CCCCCCC(Cl)(Cn1ccnc1)c1ccccc1` (centres undefined) the AC50 was 6.48 µM. Work on `CCCCC(=O)NC(c1ccco1)c1cc(Cl)c2cccnc2c1O` (centres undefined) yielded an AC50 of 2 µM. In the case of `O=Cc1cc(N=Nc2ccccc2Cl)ccc1O`, the AC50 was 0.768 µM. Compound `CN(C)c1ccc(C=c2c3ccccc3n3c2cc(-c2ccc(Cl)cc2)[n+]3C)cc1` has an AC50 of 7.4 µM. In the case of `CCOC(=O)c1c(C)oc2c1C(=O)c1ccccc1C2=O`, the AC50 was 6.76 µM. For `O=C(O)c1ccccc1NS(=O)(=O)c1cccc(-n2sc3ccccc3c2=O)c1`, the AC50 was 4.78 µM. `Clc1nc(-c2ccccn2)nc2scc(-c3ccccc3)c12` showed an AC50 of 5.78 µM. In the case of `Nc1[nH]c(=O)ncc1F`, the AC50 was 1.51 µM. `COc1ccc(O)c(C(=O)CC(=O)c2ccc(F)cc2)c1` showed an AC50 of 0.977 µM. `O=C(N/N=C(\c1ccccc1)c1cccnc1)c1cccc(F)c1` gave an AC50 of 4.97 µM. With `CC(C)N1CCN(c2ccc(OC[C@H]3CO[C@](Cn4cncn4)(c4ccc(Cl)cc4Cl)O3)cc2)CC1` the AC50 was 2 µM. `Clc1cccc(N/N=C(\Cc2nc3ccccc3[nH]2)c2ccccc2)c1` gave an AC50 of 9.04 µM. In the case of `Oc1c(CN2CCCC2)cc(COCc2ccccc2)c2cccnc12`, the AC50 was 5.55 µM. With `CN(C)S(=O)(=O)c1cccc(NC(=S)NNC(=O)c2cc3ccccc3cc2O)c1` the AC50 was 2.86 µM. `CNc1cc(CSC)nc(SCc2ccc(Cl)cc2Cl)n1` showed an AC50 of 4.18 µM. In the case of `CC(C)=CCc1c(O)ccc(C(=O)Cc2ccccc2)c1O`, the AC50 was 10.8 µM. `Nc1nonc1C(=O)NCCN=Cc1cc(Cc2ccccc2)cc(Br)c1O` gave an AC50 of 0.642 µM. Work on `CCCOc1ccc2ccccc2c1/C=C1\SC(=O)NC1=O` yielded an AC50 of 5.65 µM. In the case of `CC(C)(C)c1ccc(-n2nc(C#N)c(Cl)cc2=O)cc1`, the AC50 was 6.03 µM. With `CCCCNc1c(-c2ccc(-c3ccc(OC)cc3)c(OC)c2)nc2ccccn12` the AC50 was 5.48 µM. Compound `Cn1nc(C(F)(F)F)c(C#N)c1N1CCN(c2ccc(F)cc2)CC1` has an AC50 of 7.37 µM. Compound `COc1nc(NC23CC4CC(CC(C4)C2)C3)nc(OC)n1` has an AC50 of 10.9 µM. Work on `Cc1ccccc1C(=O)NNC(=S)NC(=O)c1ccc(Cl)cc1Cl` yielded an AC50 of 2.36 µM. `Oc1ccc(Cl)cc1CNc1cccc2cccnc12` gave an AC50 of 6.73 µM. Work on `CCc1ccc(OCc2n[nH]c(=S)n2Cc2ccccc2)cc1` yielded an AC50 of 5.29 µM. In the case of `CNC1=C(N(C(C)=O)c2ccc(Br)cc2)C(=O)c2ccccc2C1=O`, the AC50 was 6.77 µM. `Cc1ccc(S(=O)(=O)N(C(=O)c2ccncc2)c2ccc(OC(=O)c3ccncc3)cc2)cc1` gave an AC50 of 1.83 µM. For `Cc1ccc(SCCNC(=S)Nc2ccc(C)c(C)c2)cc1`, the AC50 was 6.21 µM. Compound `CC1CCc2c(C(=O)Nc3ccccn3)csc2C1` (centres undefined) has an AC50 of 9.29 µM. `COc1ccc(NC(=O)/C(Cl)=C(/Cl)S(=O)(=O)Cc2ccc(C)cc2)cn1` gave an AC50 of 4.67 µM. With `N#Cc1c(-c2ccc(Cl)cc2)n(O)c2ccccc12` the AC50 was 2.67 µM. Compound `Cc1ccc(NC(=S)c2nc3ccccc3[nH]2)c(C)c1` has an AC50 of 6.15 µM. With `COC(=O)C1=NN(C(=O)c2cccc(Br)c2)C(O)(c2ccc(Cl)cc2)C1` (centres undefined) the AC50 was 5.82 µM. `CC(C)(C)C(=O)C(Cl)C(=O)Nc1ccccc1` (centres undefined) showed an AC50 of 5.65 µM. `Oc1ccccc1-c1cc(-c2ccc3c(c2)OCCO3)n[nH]1` gave an AC50 of 5.24 µM. `CCN1/C(=C/c2sc(-c3ccccc3C)c[n+]2C)Sc2ccccc21` gave an AC50 of 5.83 µM. With `O=C(CSc1ccc(-c2ccccn2)nn1)NC1CCCCC1` the AC50 was 4.21 µM. `Clc1ccc(C2=NCCN2)cc1` was tested, and the AC50 was 2.38 µM. Compound `O=[N+]([O-])c1ccc(S(=O)(=O)c2ccccc2)nc1` has an AC50 of 2.23 µM. `O=C(O)c1ccc(N/N=C/C=C/c2ccccc2)cc1` gave an AC50 of 3.72 µM. For `CCCCCCCCCCOC(=O)Cn1c(COc2ccccc2)[n+](C)c2ccccc21`, the AC50 was > 12 µM (inactive). Work on `Cc1ccc(-c2nn(C(C)(C)C)c3ncnc(N)c23)cc1` yielded an AC50 of 1.28 µM. For `c1ccc(Cn2cc(-c3cccnc3)cn2)cc1`, the AC50 was 1.62 µM. `CCC(=O)NC(c1ccco1)c1cc(Cl)c2cccnc2c1O` (centres undefined) showed an AC50 of 2.99 µM. `Cc1ccc(C(=O)Sc2cccccc2=O)cc1` gave an AC50 of 0.295 µM. `CCOC(=O)c1ccc(NC(=O)CC2OCCN(CC)C2=O)cc1` (centres undefined) was tested, and the AC50 was 4.89 µM. Compound `C=CCc1ccc(O)c(-c2ccc(O)c(CC=C)c2)c1` has an AC50 of 4.8 µM. Compound `Clc1ccc(-c2n[nH]c3c2CCC3)cc1Cl` has an AC50 of 5.64 µM. For `COc1ccc(C(=O)c2c(C(F)(F)F)oc3c2C(=O)c2ccccc2C3=O)cc1OC`, the AC50 was 6.24 µM. For `Oc1ccc(-c2nc3ccccc3s2)c(O)c1`, the AC50 was 7.43 µM. `Cc1ccc(-c2nc3ccc(Cl)cc3c(=O)n2O)cc1` gave an AC50 of 2.08 µM. In the case of `COC(=O)COC(=O)c1ccccc1NC(=O)c1ccccc1`, the AC50 was 3.13 µM. Compound `Cc1csc(NC(=S)Nc2cccc(Cl)c2)n1` has an AC50 of 11.2 µM. `COc1ccc(CNc2ncnc3sccc23)cc1` showed an AC50 of 4.38 µM. In the case of `O=c1c2ccccc2c(-c2ccc(O)cc2)nn1-c1cccc(C(F)(F)F)c1`, the AC50 was 3.92 µM. In the case of `O=C(OCC(=O)C12CC3CC(CC(C3)C1)C2)c1ccc(O)cc1`, the AC50 was 1.69 µM. `Cc1ccc(NS(=O)(=O)c2ccc(N3CCN(c4ccc(O)cc4)CC3)c([N+](=O)[O-])c2)c(C)c1` was tested, and the AC50 was 7.43 µM. For `Cc1ccc([C@@H]2CC=C(C(=O)O)[C@H](c3ccc(Br)cc3)N2S(=O)(=O)c2ccccc2C)cc1`, the AC50 was 5.21 µM. `Cn1ccsc1=NC(=O)c1ccc([N+](=O)[O-])o1` was tested, and the AC50 was > 12 µM (inactive). For `CCC(C)c1ccc(NC(=S)NCCn2cc(Br)cn2)cc1` (centres undefined), the AC50 was 10.1 µM. In the case of `Cc1ccc(C)c(S(=O)(=O)N2CCN(Cc3ccc(O)c4ncccc34)CC2)c1`, the AC50 was 5.23 µM. `CCOC(=O)C1=C(Cc2ccc(OC)cc2)C(=O)c2ccccc2C1=O` was tested, and the AC50 was 5.4 µM. `S=C(Nc1ccc(Oc2ccccc2)cc1)NC1CCCCCC1` showed an AC50 of 6.93 µM. For `O=C(CC1(O)C(=O)Nc2cc(Cl)cc(Cl)c21)c1ccncc1` (centres undefined), the AC50 was > 12 µM (inactive). `Cc1cc(C)c2sc(NNC(=O)c3ccc(S(=O)(=O)N4CCc5ccccc5C4)cc3)nc2c1` showed an AC50 of 1.48 µM. In the case of `Cc1ccc(-c2c3c(nc4sc(C(N)=O)c(N)c24)CCCC3)o1`, the AC50 was 6.13 µM. With `COc1ccc(C(=O)NC(=S)NNC(=O)CCc2ccccc2)cc1` the AC50 was 5.29 µM. `CCc1ccc([C@@H]2CC=C(C(=O)O)[C@H](c3ccc(Cl)cc3)N2S(=O)(=O)c2ccc(C)cc2)cc1` was tested, and the AC50 was 5.39 µM. Compound `COc1ccc(N(C(=O)c2ccncc2)S(=O)(=O)c2ccc(F)cc2)cc1` has an AC50 of 5.25 µM. Work on `CCc1ccc(S(=O)(=O)N(C(=O)c2ccncc2)c2ccc(OC(=O)c3ccncc3)cc2)cc1` yielded an AC50 of 3.01 µM. Compound `Cc1ccc(-n2nnnc2SCC(=O)N2CCc3ccccc3C2)c(C)c1` has an AC50 of 5.8 µM. `C=C(C)COc1ccc(-c2[nH]ncc2-c2ccc(Br)cc2)c(O)c1` gave an AC50 of 4.66 µM. Compound `Nc1c(Cl)ncnc1N/N=C/c1ccc2ccccc2n1` has an AC50 of 5.36 µM. With `Clc1cccc(CON/C=N/c2ncnc3sccc23)c1` the AC50 was 3.74 µM. For `CCc1ccc(NC(=O)CSc2ccc(-c3ccccn3)nn2)cc1`, the AC50 was 2.44 µM. Work on `C[C@H](O)[C@H]1CC[C@H]2[C@@H]3CCC4=CC(=O)CC[C@]4(C)[C@H]3CC[C@]12C` yielded an AC50 of 6.85 µM. With `Cc1cc(C)c(OCC(=O)Nc2nc(-c3ccccn3)cs2)c(C)c1` the AC50 was 4.34 µM. For `N=c1c2c(-c3ccccc3)c(-c3ccccc3)n(Cc3ccco3)c2ncn1CCCn1ccnc1`, the AC50 was > 12 µM (inactive). Work on `Cc1cc(C(=O)N/N=C/c2ccc(O)c(O)c2O)c(C)n1-c1ccccc1` yielded an AC50 of 3.41 µM. In the case of `O=C1c2cc(F)ccc2-n2c1nc1ccccc1c2=O`, the AC50 was 0.927 µM. `CCC(Oc1ccc(Br)cc1Cl)C(=O)Nc1nnc(C2CC2)s1` (centres undefined) showed an AC50 of 4.51 µM. Compound `COc1cnc(-c2ccccn2)nc1Sc1ccc(C)cc1` has an AC50 of 5.97 µM.
